According to BindingDB's records for patent US9394289 (Janssen Pharmaceutica, 2016):

Molecular target: Macrophage colony-stimulating factor 1 receptor (Homo sapiens, UniProt P07333)
Assay: Fluorescence Polarization Competition Immunoassay
Conditions: pH 7.5; 25 °C
Description: The assay buffer used was 100 mM 4-(2-hydroxyethyl)piperazine 1-ethanesulfonic acid (HEPES), pH 7.5, 1 mM 1,4-dithio-DL-threitol (DTT), 0.01% (v/v) Tween-20. Compounds were diluted in assay buffer containing 4% dimethylsulfoxide (DMSO) just prior to the assay. To each well, 5 μL of compound were added followed by the addition of 3 μL of a mix containing 33 nM c-fms (Johnson & Johnson PRD) and 16.7 mM MgCl2 (Sigma) in assay buffer. The kinase reaction was initiated by adding 2 μL of 5 mM ATP (Sigma) in assay buffer. The final concentrations in the assay were 10 nM c-fms, 1 mM ATP, 5 mM MgCl2, 2% DMSO. Control reactions were ran in each plate: in positive and negative control wells, assay buffer (made 4% in DMSO) was substituted for the compound; in addition, positive control wells received 1.2 μL of 50 mM ethylenediaminetetraaceticacid (EDTA). The plates were incubated at room temperature for 45 min. At the end of the incubation, the reaction was quenched with 1.2 μL of 50 mM EDTA (EDTA was not added to the positive control wells at this point; see above). Following a 5-min incubation, each well received 10 μL of a 1:1:3 mixture of anti-phosphotyrosine antibody, 10×, PTK green tracer, 10× (vortexed), FP dilution buffer, respectively (all from PanVera, cat. #P2837). The plate was covered, incubated for 30 min at room temperature and the fluorescence polarization was read on the Analyst. […]

Macrophage colony-stimulating factor 1 receptor, sequence (P07333 whole entry): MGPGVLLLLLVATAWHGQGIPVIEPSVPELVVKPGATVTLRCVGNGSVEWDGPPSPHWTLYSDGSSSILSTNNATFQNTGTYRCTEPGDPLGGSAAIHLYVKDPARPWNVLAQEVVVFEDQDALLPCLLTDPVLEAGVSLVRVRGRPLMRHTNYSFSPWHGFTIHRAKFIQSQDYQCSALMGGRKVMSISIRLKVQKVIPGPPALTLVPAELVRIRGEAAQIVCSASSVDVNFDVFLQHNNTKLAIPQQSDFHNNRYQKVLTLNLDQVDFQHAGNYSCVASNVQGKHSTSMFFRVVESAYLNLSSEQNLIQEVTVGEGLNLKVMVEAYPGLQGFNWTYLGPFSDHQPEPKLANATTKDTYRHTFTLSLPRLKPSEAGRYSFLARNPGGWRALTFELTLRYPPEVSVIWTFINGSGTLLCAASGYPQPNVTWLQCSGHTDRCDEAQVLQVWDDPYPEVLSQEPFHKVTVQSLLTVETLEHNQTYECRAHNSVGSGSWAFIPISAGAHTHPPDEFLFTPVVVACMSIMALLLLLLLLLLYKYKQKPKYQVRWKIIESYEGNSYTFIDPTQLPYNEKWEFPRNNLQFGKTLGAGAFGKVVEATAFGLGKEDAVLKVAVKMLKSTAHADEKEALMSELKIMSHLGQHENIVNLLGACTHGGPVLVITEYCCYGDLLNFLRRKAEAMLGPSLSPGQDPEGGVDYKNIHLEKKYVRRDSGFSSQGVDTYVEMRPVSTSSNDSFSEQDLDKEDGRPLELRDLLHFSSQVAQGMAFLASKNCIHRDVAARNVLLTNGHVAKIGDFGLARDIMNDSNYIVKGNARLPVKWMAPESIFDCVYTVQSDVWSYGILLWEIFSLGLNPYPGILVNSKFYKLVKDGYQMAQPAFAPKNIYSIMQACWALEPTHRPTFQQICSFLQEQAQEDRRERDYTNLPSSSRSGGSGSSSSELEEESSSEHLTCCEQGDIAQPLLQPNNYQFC

## N#Cc1c[nH]c(C(=O)Nc2ccc(C3(O)CCS(=O)(=O)CC3)cc2C2=CCCCC2)n1 [US9394289, 15]
  IC50: 2.9 nM
